Laboratory results published in patent US11351178B2, “Selective HDAC6 inhibitors” (ITALFARMACO S.P.A., priority 2017, dated 2022).

Test system: peripheral blood mononuclear cells (PBMCs)
Experiment: Cytotoxicity on PBMCs (CellTiter 96)
Format: cell-based
Conditions: PBMC, 72 h; read-out: PBMC TOXICITY (72 h)
How it was run: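 Cells seeded (2×10^4/well for 697, 5×10^5/well for PBMCs); compounds added after 24 h at 1–10000 nM (697) or 1.5–10000 nM (PBMCs) and incubated 72 h. Viability read by CellTiter 96 Aqueous One tetrazolium assay of mitochondrial function.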

SMILES | IC50 [µM]
O=C(NO)c1cc(F)c(Cn2nnnc2-c2ncccn2)c(F)c1 [comp. 125, 3,5-difluoro-4-[(5-pyrimidin-2-yltetrazol-1-yl)methyl]benzenecarbohydroxamic acid] | > 10
Cn1c(Sc2c(F)cc(C(=O)NO)cc2F)nnc1-c1cccc(CN2CCCCCC2)c1 [comp. 167, 4-[[5-[3-(azepan-1-ylmethyl)phenyl]-4-methyl-1,2,4-triazol-3-yl]sulfanyl]-3,5-difluoro-benzenecarbohydroxamic acid] | > 10
Cn1c(Sc2c(F)cc(C(=O)NO)cc2F)nnc1-c1ccc(CN2CCCCCC2)cc1 [comp. 168, 4-[[5-[4-(azepan-1-ylmethyl)phenyl]-4-methyl-1,2,4-triazol-3-yl]sulfanyl]-3,5-difluoro-benzenecarbohydroxamic acid] | 7
Nc1ccc(-c2nnn(Cc3c(F)cc(C(=O)NO)cc3F)n2)cc1 [comp. 171, 4-[[5-(4-aminophenyl)tetrazol-2-yl]methyl]-3,5-difluoro-benzenecarbohydroxamic acid] | > 10
Cn1c(Sc2c(F)cc(C(=O)NO)cc2F)nnc1-c1cccnn1 [comp. 179, 3,5-difluoro-4-[(4-methyl-5-pyridazin-3-yl-1,2,4-triazol-3-yl)sulfanyl]benzenecarbohydroxamic acid] | > 10
Cn1c(Sc2c(F)cc(C(=O)NO)cc2F)nnc1-c1ncccc1F [comp. 180, 3,5-difluoro-4-[[5-(3-fluoro-2-pyridyl)-4-methyl-1,2,4-triazol-3-yl]sulfanyl]benzenecarbohydroxamic acid] | > 10
O=C(NO)c1cc(F)c(Cc2nnc(-c3ccncc3)s2)c(F)c1 [compound 195, 3,5-difluoro-4-[[5-(4-pyridyl)-1,3,4-thiadiazol-2-yl]methyl]benzenecarbohydroxamic acid] | > 10
